Experimental data as given in publication PMC11897524 (Frontiers in Pharmacology, 2025).

Columns and labels:
Test in all cases: SelectScreen Z′-LYTE kinase assay
Assay type in all cases: biochemical
ERBB2 = ERBB2 (Homo sapiens, UniProt P04626)
Procedure: (§1) The kinase selectivity profile of BST-4 was performed by the SelectScreen kinase profiling service (Thermo Fisher Scientific). Kinase selectivity assay was performed using Z′-LYTE ™ screening protocol kit. Briefly, the test compounds were screened in 1% DMSO (final). For 10-point titrations, perform a 3-fold dilution starting at a starting concentration of 50 µM. Then 2.5 µL 4× test compound, 2.4 µL kinase buffer, 5 µL 2× kinase mixture and 2.5 µL 4× ATP solution was added in black 384-well plate. After shaking for 30 s, the plates were incubated for 60 min at room temperature. Add developing reagent solution and shake the plate for 30 s, then incubate for 1 h at room temperature. The Fluorescence intensity per well was read using a fluorescence plate reader. SelectScreen® Kinase Profiling Service used XLfit from IDBS. The dose response curve was curve fit to model number 205 (sigmoidal dose-response model) and inhibition rates were calculated. 50% inhibition was used as a activity threshold. IC50 values were calculated based on curve fitting.

EPHA6 = EPHA6 (Homo sapiens, UniProt Q9UF33)
Procedure: as §1

CSK = CSK (Homo sapiens, UniProt P41240)
Procedure: as §1

FGFR2 = FGFR2 (Homo sapiens, UniProt P21802)
Procedure: as §1

EPHB2 = EPHB2 (Homo sapiens, UniProt P29323)
Procedure: as §1

PDGFRA = PDGFRA (Homo sapiens, UniProt P16234)
Procedure: as §1

EPHB4 = EPHB4 (Homo sapiens, UniProt P54760)
Procedure: as §1

PTK2 = PTK2 (Homo sapiens, UniProt Q05397)
Procedure: as §1

DDR1 = DDR1 (Homo sapiens, UniProt Q08345)
Procedure: as §1

CSF1R = CSF1R (Homo sapiens, UniProt P07333)
Procedure: as §1

KIT = KIT (Homo sapiens, UniProt P10721)
Procedure: as §1

MST1R = MST1R (Homo sapiens, UniProt Q04912)
Procedure: as §1

FLT4 = FLT4 (Homo sapiens, UniProt P35916)
Chain of FLT4 (P35916 25-1363): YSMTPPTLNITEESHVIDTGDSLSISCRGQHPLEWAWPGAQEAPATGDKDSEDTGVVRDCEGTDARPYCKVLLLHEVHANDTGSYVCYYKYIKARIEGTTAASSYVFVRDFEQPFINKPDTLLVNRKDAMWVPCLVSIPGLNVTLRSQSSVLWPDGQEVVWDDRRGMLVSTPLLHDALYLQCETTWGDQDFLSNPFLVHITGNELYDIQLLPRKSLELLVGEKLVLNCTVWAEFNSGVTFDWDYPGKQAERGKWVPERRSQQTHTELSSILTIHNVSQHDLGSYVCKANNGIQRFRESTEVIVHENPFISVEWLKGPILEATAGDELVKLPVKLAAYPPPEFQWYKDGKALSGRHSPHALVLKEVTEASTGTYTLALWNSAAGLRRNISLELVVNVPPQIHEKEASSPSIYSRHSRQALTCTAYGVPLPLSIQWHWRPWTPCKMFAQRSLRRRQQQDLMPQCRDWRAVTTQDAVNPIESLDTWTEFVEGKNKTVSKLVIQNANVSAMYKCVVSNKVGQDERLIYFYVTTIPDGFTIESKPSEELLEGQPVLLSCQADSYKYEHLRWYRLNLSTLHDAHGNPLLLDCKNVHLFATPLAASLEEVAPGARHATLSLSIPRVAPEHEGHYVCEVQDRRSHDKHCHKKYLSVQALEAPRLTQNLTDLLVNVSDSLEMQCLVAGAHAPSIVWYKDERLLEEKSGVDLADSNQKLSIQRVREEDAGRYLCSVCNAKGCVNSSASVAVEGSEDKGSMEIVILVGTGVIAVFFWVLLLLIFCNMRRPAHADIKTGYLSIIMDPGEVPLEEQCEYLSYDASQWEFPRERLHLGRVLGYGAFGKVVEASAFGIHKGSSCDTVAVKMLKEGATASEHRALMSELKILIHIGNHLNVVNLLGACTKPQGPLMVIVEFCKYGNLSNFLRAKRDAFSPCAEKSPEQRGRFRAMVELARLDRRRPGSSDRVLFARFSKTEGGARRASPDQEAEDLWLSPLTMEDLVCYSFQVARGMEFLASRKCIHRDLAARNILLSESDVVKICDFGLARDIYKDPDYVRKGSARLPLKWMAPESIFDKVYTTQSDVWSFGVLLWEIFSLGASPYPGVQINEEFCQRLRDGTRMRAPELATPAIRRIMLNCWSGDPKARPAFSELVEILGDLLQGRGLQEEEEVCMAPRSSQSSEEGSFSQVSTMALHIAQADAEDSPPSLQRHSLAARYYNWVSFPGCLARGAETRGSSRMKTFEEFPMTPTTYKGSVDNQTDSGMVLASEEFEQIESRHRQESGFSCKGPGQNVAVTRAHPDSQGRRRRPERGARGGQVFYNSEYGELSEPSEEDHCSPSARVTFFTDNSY
Procedure: as §1

FGFR3 = FGFR3 (Homo sapiens, UniProt P22607)
Procedure: as §1

JAK2 = JAK2 (Homo sapiens, UniProt O60674)
Procedure: as §1

EPHB3 = EPHB3 (Homo sapiens, UniProt P54753)
Procedure: as §1

EPHA8 = EPHA8 (Homo sapiens, UniProt P29322)
Procedure: as §1

SYK = SYK (Homo sapiens, UniProt P43405)
Procedure: as §1

INSRR = INSRR (Homo sapiens, UniProt P14616)
Procedure: as §1

FYN = FYN (Homo sapiens, UniProt P06241)
Procedure: as §1

TYK2 = TYK2 (Homo sapiens, UniProt P29597)
Procedure: as §1

MUSK = MUSK (Homo sapiens, UniProt O15146)
Chain of MUSK (O15146 24-869): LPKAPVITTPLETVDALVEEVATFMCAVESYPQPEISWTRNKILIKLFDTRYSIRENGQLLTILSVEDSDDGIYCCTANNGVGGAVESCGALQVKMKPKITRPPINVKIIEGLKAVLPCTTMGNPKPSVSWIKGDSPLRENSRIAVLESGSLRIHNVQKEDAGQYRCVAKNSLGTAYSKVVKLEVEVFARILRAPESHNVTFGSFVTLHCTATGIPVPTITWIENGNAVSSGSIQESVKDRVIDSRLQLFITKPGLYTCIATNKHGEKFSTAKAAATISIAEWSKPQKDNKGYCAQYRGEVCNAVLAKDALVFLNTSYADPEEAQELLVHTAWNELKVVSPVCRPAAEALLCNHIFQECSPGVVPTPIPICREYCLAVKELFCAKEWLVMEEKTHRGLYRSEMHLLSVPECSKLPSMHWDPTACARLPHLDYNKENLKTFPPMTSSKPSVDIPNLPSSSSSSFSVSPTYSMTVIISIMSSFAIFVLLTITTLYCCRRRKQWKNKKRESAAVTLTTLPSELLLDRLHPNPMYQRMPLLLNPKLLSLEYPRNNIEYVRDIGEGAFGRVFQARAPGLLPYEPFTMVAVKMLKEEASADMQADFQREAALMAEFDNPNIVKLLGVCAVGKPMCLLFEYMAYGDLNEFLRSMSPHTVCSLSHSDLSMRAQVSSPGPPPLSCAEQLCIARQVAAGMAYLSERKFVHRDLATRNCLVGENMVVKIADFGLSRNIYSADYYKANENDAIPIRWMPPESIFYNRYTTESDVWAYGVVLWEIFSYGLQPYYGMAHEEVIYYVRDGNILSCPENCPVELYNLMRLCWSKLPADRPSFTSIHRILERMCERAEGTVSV
Procedure: as §1

PDGFRB = PDGFRB (Homo sapiens, UniProt P09619)
Chain of PDGFRB (P09619 33-1106): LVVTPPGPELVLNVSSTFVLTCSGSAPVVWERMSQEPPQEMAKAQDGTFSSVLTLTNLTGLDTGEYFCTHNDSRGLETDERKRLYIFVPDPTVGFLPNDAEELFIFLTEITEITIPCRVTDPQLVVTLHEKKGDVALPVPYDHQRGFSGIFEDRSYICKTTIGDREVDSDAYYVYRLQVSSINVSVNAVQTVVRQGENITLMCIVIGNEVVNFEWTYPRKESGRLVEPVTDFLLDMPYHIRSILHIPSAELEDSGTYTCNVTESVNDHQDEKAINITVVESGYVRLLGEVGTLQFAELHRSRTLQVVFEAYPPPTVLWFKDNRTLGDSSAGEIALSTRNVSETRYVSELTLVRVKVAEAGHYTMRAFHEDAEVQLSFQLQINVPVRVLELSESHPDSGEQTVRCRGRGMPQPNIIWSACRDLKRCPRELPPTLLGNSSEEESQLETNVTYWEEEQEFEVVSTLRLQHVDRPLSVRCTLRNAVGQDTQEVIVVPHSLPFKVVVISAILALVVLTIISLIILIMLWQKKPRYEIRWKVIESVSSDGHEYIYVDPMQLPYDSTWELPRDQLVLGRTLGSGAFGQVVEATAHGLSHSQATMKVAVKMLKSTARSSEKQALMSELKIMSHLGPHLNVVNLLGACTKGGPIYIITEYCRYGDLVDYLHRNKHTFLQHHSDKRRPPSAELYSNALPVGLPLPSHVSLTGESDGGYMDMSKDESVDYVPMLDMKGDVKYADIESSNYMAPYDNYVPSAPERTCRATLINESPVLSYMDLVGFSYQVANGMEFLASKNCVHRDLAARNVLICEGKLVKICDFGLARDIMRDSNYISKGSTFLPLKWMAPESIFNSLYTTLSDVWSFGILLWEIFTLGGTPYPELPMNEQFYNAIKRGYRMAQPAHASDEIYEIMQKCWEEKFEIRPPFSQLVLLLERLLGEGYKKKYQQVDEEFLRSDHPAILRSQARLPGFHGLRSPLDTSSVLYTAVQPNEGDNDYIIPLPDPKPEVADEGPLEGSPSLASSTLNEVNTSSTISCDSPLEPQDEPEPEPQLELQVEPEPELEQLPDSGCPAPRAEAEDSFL
Procedure: as §1

NTRK3 = NTRK3 (Homo sapiens, UniProt Q16288)
Procedure: as §1

FGFR4 = FGFR4 (Homo sapiens, UniProt P22455)
Procedure: as §1

EPHA3 = EPHA3 (Homo sapiens, UniProt P29320)
Chain of EPHA3 (P29320 21-983): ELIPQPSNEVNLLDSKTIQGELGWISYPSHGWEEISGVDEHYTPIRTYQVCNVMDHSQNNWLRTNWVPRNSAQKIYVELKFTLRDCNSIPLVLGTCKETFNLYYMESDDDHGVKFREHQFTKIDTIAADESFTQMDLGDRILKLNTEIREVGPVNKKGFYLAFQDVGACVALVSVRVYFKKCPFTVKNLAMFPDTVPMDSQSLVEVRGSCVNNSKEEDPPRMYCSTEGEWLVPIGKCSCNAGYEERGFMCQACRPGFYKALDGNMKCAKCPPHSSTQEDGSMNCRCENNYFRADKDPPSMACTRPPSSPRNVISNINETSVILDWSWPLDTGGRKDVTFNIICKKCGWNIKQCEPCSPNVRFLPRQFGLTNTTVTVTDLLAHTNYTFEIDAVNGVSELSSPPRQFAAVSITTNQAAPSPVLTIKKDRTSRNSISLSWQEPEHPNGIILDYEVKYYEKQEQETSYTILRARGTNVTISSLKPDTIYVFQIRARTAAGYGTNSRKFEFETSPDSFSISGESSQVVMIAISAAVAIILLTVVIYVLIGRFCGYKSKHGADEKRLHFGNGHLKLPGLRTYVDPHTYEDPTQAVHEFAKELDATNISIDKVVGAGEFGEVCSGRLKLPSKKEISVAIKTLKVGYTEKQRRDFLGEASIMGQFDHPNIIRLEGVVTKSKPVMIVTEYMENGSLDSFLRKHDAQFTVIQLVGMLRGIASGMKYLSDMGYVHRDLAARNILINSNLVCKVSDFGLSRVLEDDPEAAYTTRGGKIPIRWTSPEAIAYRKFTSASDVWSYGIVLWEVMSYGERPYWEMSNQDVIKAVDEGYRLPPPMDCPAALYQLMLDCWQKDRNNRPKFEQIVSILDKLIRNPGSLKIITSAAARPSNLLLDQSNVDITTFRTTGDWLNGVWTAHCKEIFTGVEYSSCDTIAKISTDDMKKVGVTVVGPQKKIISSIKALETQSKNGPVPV
Procedure: as §1

AXL = AXL (Homo sapiens, UniProt P30530)
Procedure: as §1

PTK2B = PTK2B (Homo sapiens, UniProt Q14289)
Procedure: as §1

EPHA4 = EPHA4 (Homo sapiens, UniProt P54764)
Procedure: as §1

TYRO3 = TYRO3 (Homo sapiens, UniProt Q06418)
Procedure: as §1

PTK6 = PTK6 (Homo sapiens, UniProt Q13882)
Procedure: as §1

DDR2 = DDR2 (Homo sapiens, UniProt Q16832)
Chain of DDR2 (Q16832 22-855): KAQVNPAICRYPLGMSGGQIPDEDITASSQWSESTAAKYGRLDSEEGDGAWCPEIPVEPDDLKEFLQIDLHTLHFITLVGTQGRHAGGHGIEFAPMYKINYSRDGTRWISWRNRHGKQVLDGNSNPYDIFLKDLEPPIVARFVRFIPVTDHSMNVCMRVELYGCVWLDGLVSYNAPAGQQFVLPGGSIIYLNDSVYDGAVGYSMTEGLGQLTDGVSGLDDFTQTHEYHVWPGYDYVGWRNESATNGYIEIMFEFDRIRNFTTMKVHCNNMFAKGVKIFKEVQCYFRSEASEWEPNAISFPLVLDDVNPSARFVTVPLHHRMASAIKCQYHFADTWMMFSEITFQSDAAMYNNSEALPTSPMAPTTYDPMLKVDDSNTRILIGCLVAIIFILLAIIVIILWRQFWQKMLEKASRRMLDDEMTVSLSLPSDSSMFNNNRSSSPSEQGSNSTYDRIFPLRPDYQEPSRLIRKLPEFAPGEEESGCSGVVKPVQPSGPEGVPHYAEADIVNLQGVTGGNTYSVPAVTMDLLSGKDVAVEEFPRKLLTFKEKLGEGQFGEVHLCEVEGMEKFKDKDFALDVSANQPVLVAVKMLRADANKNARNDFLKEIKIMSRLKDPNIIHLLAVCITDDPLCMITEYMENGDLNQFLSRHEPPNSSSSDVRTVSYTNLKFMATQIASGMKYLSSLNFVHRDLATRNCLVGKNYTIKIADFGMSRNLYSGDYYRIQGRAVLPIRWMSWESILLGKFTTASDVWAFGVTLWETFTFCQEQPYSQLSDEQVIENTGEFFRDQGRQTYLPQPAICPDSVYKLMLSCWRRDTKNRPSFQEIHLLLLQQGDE
Procedure: as §1

CCS(=O)(=O)Cc1cnc(Oc2c(F)cc(F)cc2OCCCCOc2ccc(/C=C/c3cc(OC)cc(OC)c3)cc2)c(-c2cc(C)c3c(=O)[nH]ccn23)c1 [BST-4]
IC50 (ERBB2): > 10 µM | inhibition at 1 µM (ERBB2): 4.43% | IC50 (EPHA6): > 10 µM | inhibition at 1 µM (EPHA6): 0.26% | IC50 (CSK): > 10 µM | inhibition at 1 µM (CSK): 0.74% | IC50 (FGFR2): > 10 µM | inhibition at 1 µM (FGFR2): 0.45% | IC50 (EPHB2): > 10 µM | inhibition at 1 µM (EPHB2): 0.51% | IC50 (PDGFRA): > 10 µM | inhibition at 1 µM (PDGFRA): 0.37% | IC50 (EPHB4): > 10 µM | inhibition at 1 µM (EPHB4): 0.97% | IC50 (PTK2): > 10 µM | inhibition at 1 µM (PTK2): 1.48% | IC50 (DDR1): > 10 µM | inhibition at 1 µM (DDR1): 3.63% | IC50 (CSF1R): > 10 µM | inhibition at 1 µM (CSF1R): 2.02% | IC50 (KIT): > 10 µM | inhibition at 1 µM (KIT): 0.25% | IC50 (MST1R): > 10 µM | inhibition at 1 µM (MST1R): 5.02% | IC50 (FLT4): > 10 µM | inhibition at 1 µM (FLT4): 1.82% | IC50 (FGFR3): > 10 µM | inhibition at 1 µM (FGFR3): 2.84% | IC50 (JAK2): > 10 µM | inhibition at 1 µM (JAK2): 0.18% | IC50 (EPHB3): > 10 µM | inhibition at 1 µM (EPHB3): 0.98% | IC50 (EPHA8): > 10 µM | inhibition at 1 µM (EPHA8): 0.72% | IC50 (SYK): > 10 µM | inhibition at 1 µM (SYK): 1.92% | IC50 (INSRR): > 10 µM | inhibition at 1 µM (INSRR): 0.62% | IC50 (FYN): > 10 µM | inhibition at 1 µM (FYN): 2.03% | IC50 (TYK2): > 10 µM | inhibition at 1 µM (TYK2): 5.33% | IC50 (MUSK): > 10 µM | inhibition at 1 µM (MUSK): 1.26% | IC50 (PDGFRB): > 10 µM | inhibition at 1 µM (PDGFRB): 0.1% | IC50 (NTRK3): > 10 µM | inhibition at 1 µM (NTRK3): 4.75% | IC50 (FGFR4): > 10 µM | inhibition at 1 µM (FGFR4): 0.68% | IC50 (EPHA3): > 10 µM | inhibition at 1 µM (EPHA3): 0.89% | IC50 (AXL): > 10 µM | inhibition at 1 µM (AXL): 1.83% | IC50 (PTK2B): > 10 µM | inhibition at 1 µM (PTK2B): 0.73% | IC50 (EPHA4): > 10 µM | inhibition at 1 µM (EPHA4): 0.58% | IC50 (TYRO3): > 10 µM | inhibition at 1 µM (TYRO3): 0.04% | IC50 (PTK6): > 10 µM | inhibition at 1 µM (PTK6): 2.34% | IC50 (DDR2): > 10 µM | inhibition at 1 µM (DDR2): 0.7%
